Active and inactive are the calls of the source. The rule behind the calls is not given here.
Test system: GENE-TOX genotoxicity assays, various organisms and cells
Test: GENE-TOX mutagenicity studies
Conditions: for call: Assay Type: In vivo carcinogenicity studies
[1] = Species/Cell Type: Salmonella typhimurium (one or more of the five standard strains: TA98, TA100, TA1535, TA1537, and TA1538), Assay Type: Histidine reverse gene mutation, Ames assay, Assay Code: SALT, Evaluation Type: Evaluation A (Pre-1980)
[2] = Species/Cell Type: Chinese hamster lung (V79) cells, Assay Type: Forward gene mutation at the HPRT or ouabain locus, Assay Code: V79+, Evaluation Type: Evaluation A (Pre-1980)
[3] = Species/Cell Type: Drosophila melanogaster, Assay Type: Sex-linked recessive lethal gene mutation, Assay Code: SRL+, Evaluation Type: Evaluation A (Pre-1980)
[4] = Species/Cell Type: Neurospora crassa, Assay Type: Forward gene mutation, Assay Code: NEF+, Evaluation Type: Evaluation A (Pre-1980)
[5] = Species/Cell Type: Nonhuman, Assay Code: CCG+, Evaluation Type: Evaluation A (Pre-1980)
[6] = Species/Cell Type: Nonhuman, Assay Type: Sister-chromatid exchange (SCE) in vitro, Assay Code: SC2+D, Dose Response: With dose response, Evaluation Type: Evaluation B (Post-1980)
[7] = Species/Cell Type: Saccharomyces cerevisiae, Assay Type: Mitotic recombination or gene conversion, Assay Code: YEC+, Evaluation Type: Evaluation A (Pre-1980)

How did the mutagenic call [1] turn out when `Cc1ccc2cccc(O)c2n1` was run?
The mutagenic call was “no conclusion”.

`C[C@]12C=CC(=O)C=C1CC[C@@H]1[C@@H]2CC[C@@]2(C)[C@H]1CC[C@]2(C)O` was tested. Which mutagenic call (Species/Cell Type: Human, Sex: Male, Assay Type: Sperm morphology, Assay Code: SPH+, Evaluation Type: Evaluation A (Pre-1980)) did it give?
The mutagenic call was “active; positive”.

`Cc1cc(O)c2c(c1)C(=O)C13C(=C2O)C(=O)C2C(O)C1C1C(O)C3C(=O)C3=C(O)c4c(O)cc(C)cc4C(=O)C321` (stereo not given) was tested. Which mutagenic call (Species/Cell Type: Bacillus subtilis (H17 vs M45), Assay Type: Rec-assay, spot test, DNA effects (bacterial DNA repair), Assay Code: REW+, Evaluation Type: Evaluation A (Pre-1980)) did it give?
The mutagenic call was “active; positive”.

Which mutagenic call (Species/Cell Type: Allium cepa, Assay Type: Chromosome aberrations, Assay Code: ALC+D, Dose Response: With dose response, Evaluation Type: Evaluation A (Pre-1980)) does the source give for `CN(N=O)C(N)=O` here?
The mutagenic call was “active; positive”.

What about the mutagenic call (Species/Cell Type: Arabidopsis species, Assay Type: Gene mutation, Assay Code: ARM+D, Dose Response: With dose response, Evaluation Type: Evaluation A (Pre-1980)) of the same compound?
Its mutagenic call is “active; positive”.

What about the mutagenic call [2] of the same compound?
The mutagenic call was “active; positive”.

What about the mutagenic call (Species/Cell Type: Chinese hamster ovary (CHO) cells, Assay Type: Forward gene mutation at the HPRT locus, Assay Code: CHO+D, Dose Response: With dose response, Evaluation Type: Evaluation A (Pre-1980)) of the same compound?
Its mutagenic call is “active; positive”.

What about the mutagenic call (Species/Cell Type: Drosophila melanogaster, Assay Type: Aneuploidy, partial sex chromosome loss, chromosome aberrations, Assay Code: DAP+M, Evaluation Type: Evaluation A (Pre-1980)) of the same compound?
Its mutagenic call is “active; positive”.

What about the mutagenic call (Species/Cell Type: Drosophila melanogaster, Assay Type: Aneuploidy, whole sex chromosome loss, chromosome aberrations, Assay Code: DAC+M, Evaluation Type: Evaluation A (Pre-1980)) of the same compound?
Its mutagenic call is “active; positive”.

What about the mutagenic call [3] of the same compound?
The mutagenic call was “active; positive”.

What about the mutagenic call (Species/Cell Type: Drosophila melanogaster, Sex: Male, Assay Type: Heritable translocation test, chromosome aberrations, Assay Code: DHT+, Evaluation Type: Evaluation A (Pre-1980)) of the same compound?
Its mutagenic call is “active; positive”.

What about the mutagenic call (Species/Cell Type: Escherichia coli WP2, Assay Type: Tryptophan reverse gene mutation, Assay Code: WP2+, Evaluation Type: Evaluation A (Pre-1980)) of the same compound?
Its mutagenic call is “active; positive”.

And the mutagenic call (Species/Cell Type: Escherichia coli WP2 UVRA, Assay Type: Tryptophan reverse gene mutation, Assay Code: WPU+, Evaluation Type: Evaluation A (Pre-1980))?
The mutagenic call was “active; positive”.

And the mutagenic call (Species/Cell Type: Escherichia coli polA (W3119 vs P3478), Assay Type: Rec-assay, DNA effects (bacterial DNA repair), Assay Code: RE1+, Evaluation Type: Evaluation A (Pre-1980))?
The mutagenic call was “active; positive”.

What about the mutagenic call (Species/Cell Type: Glycine max (soybean), Assay Type: Gene mutation, Assay Code: GLM+, Evaluation Type: Evaluation A (Pre-1980)) of the same compound?
Its mutagenic call is “active; positive”.

And the mutagenic call (Species/Cell Type: Hordeum vulgare (barley), Assay Type: Chromosome aberrations, Assay Code: HOC+, Evaluation Type: Evaluation A (Pre-1980))?
The mutagenic call was “active; positive”.

What about the mutagenic call (Species/Cell Type: Hordeum vulgare (barley), Assay Type: Gene mutation, Assay Code: HOM+, Evaluation Type: Evaluation A (Pre-1980)) of the same compound?
Its mutagenic call is “active; positive”.

And the mutagenic call (Species/Cell Type: Human cell culture, Assay Type: Chromosome aberrations in vitro, Assay Code: CYZ+, Evaluation Type: Evaluation A (Pre-1980))?
Its mutagenic call is “active; positive”.

And the mutagenic call (Species/Cell Type: Human diploid fibroblasts, Assay Type: Unscheduled DNA synthesis (UDS) in vitro, DNA effects, Assay Code: UDH+, Evaluation Type: Evaluation A (Pre-1980))?
The mutagenic call was “active; positive”.

And the mutagenic call (Species/Cell Type: Human lymphocytes, Assay Type: Sister-chromatid exchange (SCE) in vitro, Assay Code: SCL+D, Dose Response: With dose response, Evaluation Type: Evaluation B (Post-1980))?
Its mutagenic call is “active; positive”.

And the mutagenic call (Species/Cell Type: Human, Assay Type: Sister-chromatid exchange (SCE) in vitro, Assay Code: SC1+D, Dose Response: With dose response, Evaluation Type: Evaluation B (Post-1980))?
Its mutagenic call is “active; positive”.

What about the mutagenic call (Species/Cell Type: Mammalian polychromatic erythrocytes, Assay Type: Micronucleus test, chromosome aberrations, Assay Code: MNTT, Evaluation Type: Evaluation A (Pre-1980)) of the same compound?
Its mutagenic call is “no conclusion”.

What about the mutagenic call (Species/Cell Type: Mouse germ cells, Sex: Male, Assay Type: Unscheduled DNA synthesis (UDS) in vivo, DNA effects, Assay Code: UDT+, Evaluation Type: Evaluation A (Pre-1980)) of the same compound?
The mutagenic call was “active; positive”.

And the mutagenic call (Species/Cell Type: Mouse, Sex: Male, Assay Type: Sperm morphology, Assay Code: SPI+, Evaluation Type: Evaluation A (Pre-1980))?
Its mutagenic call is “active; positive”.

And the mutagenic call [4]?
Its mutagenic call is “active; positive”.

What about the mutagenic call (Species/Cell Type: Neurospora crassa, Assay Type: Reverse gene mutation, Assay Code: NER+, Evaluation Type: Evaluation A (Pre-1980)) of the same compound?
The mutagenic call was “active; positive”.

And the call [5]?
The call was “active; positive”.

And the mutagenic call (Species/Cell Type: Nonhuman, Assay Type: Sister-chromatid exchange (SCE) in vitro, Assay Code: SC2+, Evaluation Type: Evaluation A (Pre-1980))?
Its mutagenic call is “active; positive”.

What about the mutagenic call [6] of the same compound?
The mutagenic call was “active; positive”.

What about the mutagenic call (Species/Cell Type: Nonhuman, Assay Type: Sister-chromatid exchange (SCE) in vivo, Assay Code: SC3+D, Dose Response: With dose response, Evaluation Type: Evaluation B (Post-1980)) of the same compound?
The mutagenic call was “active; positive”.

And the mutagenic call (Species/Cell Type: Rat primary hepatocytes, Assay Type: Unscheduled DNA synthesis (UDS) in vitro, DNA effects, Assay Code: UDP+, Evaluation Type: Evaluation A (Pre-1980))?
The mutagenic call was “active; positive”.

What about the mutagenic call (Species/Cell Type: Rodents, Sex: Male, Assay Type: Dominant lethal test, Assay Code: DLT-, Evaluation Type: Evaluation A (Pre-1980)) of the same compound?
Its mutagenic call is “inactive; negative”.

What about the mutagenic call (Species/Cell Type: Saccharomyces cerevisiae, Assay Type: Aneuploidy, chromosome aberrations, Assay Code: YEN+, Evaluation Type: Evaluation A (Pre-1980)) of the same compound?
Its mutagenic call is “active; positive”.

What about the mutagenic call [7] of the same compound?
Its mutagenic call is “active; positive”.

What about the mutagenic call (Species/Cell Type: Saccharomyces cerevisiae, Assay Type: Reverse gene mutation, Assay Code: YER+, Evaluation Type: Evaluation A (Pre-1980)) of the same compound?
The mutagenic call was “active; positive”.

What about the mutagenic call (Species/Cell Type: Salmonella typhimurium (one or more of the five standard strains: TA98, TA100, TA1535, TA1537, and TA1538), Assay Type: Histidine reverse gene mutation, Ames assay, Assay Code: SAL+, Evaluation Type: Evaluation A (Pre-1980)) of the same compound?
Its mutagenic call is “active; positive”.

And the mutagenic call (Species/Cell Type: Salmonella typhimurium, Escherichia coli, Serratia marcesens, Assay Type: Forward and reverse gene mutation, host-mediated assay, Assay Code: HMN+, Evaluation Type: Evaluation A (Pre-1980))?
Its mutagenic call is “active; positive”.

And the mutagenic call (Species/Cell Type: Vicia faba, Assay Type: Chromosome aberrations, Assay Code: VIC+, Evaluation Type: Evaluation A (Pre-1980))?
The mutagenic call was “active; positive”.

What about the mutagenic call (Species/Cell Type: Zea mays (corn), Assay Type: Gene mutation, Assay Code: ZEM+D, Dose Response: With dose response, Evaluation Type: Evaluation A (Pre-1980)) of the same compound?
The mutagenic call was “active; positive”.

Which mutagenic call (Species/Cell Type: Rat, Sex: Male, Assay Type: Sperm morphology, Assay Code: SPA+, Evaluation Type: Evaluation A (Pre-1980)) does the source give for `NC[C@@H]1OC(O[C@H]2[C@@H](O)[C@H](O[C@@H]3[C@@H](O)[C@H](N)C[C@H](N)[C@H]3O[C@H]3O[C@H](CN)[C@@H](O)[C@H](O)[C@H]3N)O[C@@H]2CO)[C@H](N)[C@@H](O)[C@@H]1O` (stereo not given in full) here?
The mutagenic call was “active; positive”.

How did the mutagenic call (Species/Cell Type: Mammalian polychromatic erythrocytes, Assay Type: Micronucleus test, chromosome aberrations, Assay Code: MNT-, Evaluation Type: Evaluation B (Post-1980)) turn out when `OC[C@@H](O)[C@@H](O[C@H]1O[C@H](CO)[C@@H](O)[C@H](O)[C@H]1O)[C@H](O)[C@@H](O)CO` was run?
The mutagenic call was “inactive; negative”.

Which call (Species/Cell Type: Nonhuman, Assay Code: CCG+L, Evaluation Type: Evaluation A (Pre-1980)) does the source give for `COCCl` here?
Its call is “active; positive”.

What about the mutagenic call (Species/Cell Type: Syrian hamster embryo (SA7/SHE) cells, Assay Type: Cell transformation, viral enhanced, Assay Code: CT7+, Evaluation Type: Evaluation A (Pre-1980)) of the same compound?
The mutagenic call was “active; positive”.

Which results are given for `CN(C)N=Nc1c(Cl)cc(Cl)cc1Cl`?
mutagenic call (Species/Cell Type: Drosophila melanogaster, Assay Type: Aneuploidy, partial sex chromosome loss, chromosome aberrations, Assay Code: DAPT, Evaluation Type: Evaluation A (Pre-1980)): no conclusion; mutagenic call (Species/Cell Type: Drosophila melanogaster, Assay Type: Aneuploidy, whole sex chromosome loss, chromosome aberrations, Assay Code: DACT, Evaluation Type: Evaluation A (Pre-1980)): no conclusion; mutagenic call [3]: active; positive; mutagenic call (Species/Cell Type: Mammalian polychromatic erythrocytes, Assay Type: Micronucleus test, chromosome aberrations, Assay Code: MNT+, Evaluation Type: Evaluation A (Pre-1980)): active; positive; mutagenic call [4]: active; positive; mutagenic call [7]: active; positive

What does the source list for `COc1cc(-c2ccc(N)c(OC)c2)ccc1N`?
mutagenic call (Species/Cell Type: Escherichia coli polA (W3119 vs P3478), Assay Type: Rec-assay, DNA effects (bacterial DNA repair), Assay Code: RE1T, Evaluation Type: Evaluation A (Pre-1980)): no conclusion; mutagenic call (Species/Cell Type: Human diploid fibroblasts, Assay Type: Unscheduled DNA synthesis (UDS) in vitro, DNA effects, Assay Code: UDH+*, Activation: With metabolic activation, Evaluation Type: Evaluation A (Pre-1980)): active; positive; call [5]: active; positive; mutagenic call [6]: active; positive; mutagenic call (Species/Cell Type: Salmonella typhimurium (one or more of the five standard strains: TA98, TA100, TA1535, TA1537, and TA1538), Assay Type: Histidine reverse gene mutation, Ames assay, Assay Code: SAL+*, Activation: With metabolic activation, Evaluation Type: Evaluation A (Pre-1980)): active; positive

Which results are given for `CC1=C(O)C(=O)C(C2=C(O)C(=O)C(C)=C(O)C2=O)=C(O)C1=O`?
mutagenic call (Species/Cell Type: Saccharomyces cerevisiae, Assay Type: Mitotic recombination or gene conversion, Assay Code: YEH-, Evaluation Type: Evaluation A (Pre-1980)): inactive; negative; mutagenic call [1]: no conclusion

Which mutagenic call (Species/Cell Type: Drosophila melanogaster, Assay Type: Sex-linked recessive lethal gene mutation, Assay Code: SRLT, Evaluation Type: Evaluation A (Pre-1980)) does the source give for `CO[C@H]1/C=C/O[C@@]2(C)Oc3c(C)c(O)c4c(O)c(c(/C=N/N5CCN(C)CC5)c(O)c4c3C2=O)NC(=O)/C(C)=C\C=C\[C@H](C)[C@H](O)[C@@H](C)[C@@H](O)[C@@H](C)[C@H](OC(C)=O)[C@@H]1C` here?
The mutagenic call was “no conclusion”.

Which results are given for `Cc1c2c(c(C)c3c1ccc1ccccc13)C=C[C@@H](O)[C@@H]2O`?
mutagenic call [2]: active; positive; mutagenic call (Species/Cell Type: Mouse prostate cells, Assay Type: Cell transformation, Assay Code: CTM+D, Dose Response: With dose response, Evaluation Type: Evaluation A (Pre-1980)): active; positive; call (Species/Cell Type: Nonhuman, Assay Code: CCGT, Evaluation Type: Evaluation A (Pre-1980)): no conclusion

Reference: PubChem BioAssay AID1259408 (Genetic Toxicology Data Bank (GENE-TOX), 2018)
